Laboratory results as given in US11427548B2 (Arvinas Operations, Inc., priority 2015, dated 2022).

Biological target: T1, Androgen Receptor (Homo sapiens, UniProt P10275)
T1 construct: endogenous in cells; host or cells: VCaP cells
T1 sequence (P10275 1-920): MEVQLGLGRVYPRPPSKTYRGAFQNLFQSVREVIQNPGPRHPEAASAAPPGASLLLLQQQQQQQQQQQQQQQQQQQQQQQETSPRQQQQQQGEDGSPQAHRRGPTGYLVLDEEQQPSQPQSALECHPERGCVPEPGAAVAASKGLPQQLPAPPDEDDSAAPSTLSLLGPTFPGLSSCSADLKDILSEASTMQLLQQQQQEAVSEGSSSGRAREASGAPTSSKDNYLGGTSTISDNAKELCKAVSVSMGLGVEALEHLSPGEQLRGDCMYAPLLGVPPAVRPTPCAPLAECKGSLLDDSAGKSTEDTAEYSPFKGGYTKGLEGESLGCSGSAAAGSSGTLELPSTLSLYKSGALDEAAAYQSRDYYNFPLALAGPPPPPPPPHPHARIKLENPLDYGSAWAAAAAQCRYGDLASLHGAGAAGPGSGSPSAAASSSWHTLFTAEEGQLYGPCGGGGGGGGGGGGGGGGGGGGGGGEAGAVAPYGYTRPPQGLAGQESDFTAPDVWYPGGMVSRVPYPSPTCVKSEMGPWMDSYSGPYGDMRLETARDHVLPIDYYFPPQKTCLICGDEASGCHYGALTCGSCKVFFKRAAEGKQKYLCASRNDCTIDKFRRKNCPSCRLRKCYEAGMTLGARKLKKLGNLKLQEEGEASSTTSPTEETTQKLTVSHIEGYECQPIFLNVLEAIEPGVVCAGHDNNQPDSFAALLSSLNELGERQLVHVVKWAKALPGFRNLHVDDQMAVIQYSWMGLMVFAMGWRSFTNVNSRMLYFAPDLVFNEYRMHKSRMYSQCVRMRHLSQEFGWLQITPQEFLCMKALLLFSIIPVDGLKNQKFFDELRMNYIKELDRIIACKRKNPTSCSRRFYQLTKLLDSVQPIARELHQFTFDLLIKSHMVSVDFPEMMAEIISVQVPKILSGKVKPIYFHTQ
Assay: Androgen Receptor ELISA assay (PathScan AR ELISA) in VCaP cells: AR degradation, Dmax and DC50
Assay type: cell-based
Conditions: VCaP cells, Table 36; for DC50: read-out: VCaP DC50; for Dmax: VCaP, read-out: VCaP Dmax (%)
Method in brief: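 VCaP cells in phenol red-free RPMI with 5% charcoal-stripped FBS were grown at least 3 days, then given compound as 7 half-log doses in 0.1% DMSO with 0.1 nM R1881 for 24 h. Lysates went into a sandwich AR ELISA with TMB read at 450 nm.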

SMILES	DC50	Dmax
Cc1ncsc1-c1ccc([C@H](C)NC(=O)[C@@H]2C[C@@H](O)CN2C(=O)C(NC(=O)CO[C@H]2CCCC[C@@H]2N2CCN(CCOc3ccc(C(=O)N[C@H]4C(C)(C)[C@H](Oc5ccc(C#N)c(Cl)c5)C4(C)C)cc3)CC2)C(C)(C)C)cc1 (stereo partly drawn) [Example 791, (2S,4R)-1-((S)-2-(2-(((1S,2S)-2-(4-(2-(4-(((1r,3r)-3-(3-chloro-4-cyanophenoxy)-2,2,4,4-tetramethylcyclobutyl)carbamoyl)phenoxy)ethyl)piperazin-1-yl)cyclohexyl)oxy)acetamido)-3,3-dimethylbutanoyl)-4-hydroxy-N-((S)-1-(4-(4-methylthiazol-5-yl)phenyl)ethyl)pyrrolidine-2-carboxamide]	> 0.501 µM	< 25%
Cc1ncsc1-c1ccc([C@H](C)NC(=O)[C@@H]2C[C@@H](O)CN2C(=O)C(NC(=O)CO[C@@H]2CCCC[C@H]2N2CCN(CCOc3ccc(C(=O)N[C@H]4C(C)(C)[C@H](Oc5ccc(C#N)c(Cl)c5)C4(C)C)cc3)CC2)C(C)(C)C)cc1 (stereo partly drawn) [Example 792, (2S,4R)-1-((S)-2-(2-(((1R,2R)-2-(4-(2-(4-(((1r,3r)-3-(3-chloro-4-cyanophenoxy)-2,2,4,4-tetramethylcyclobutyl)carbamoyl)phenoxy)ethyl)piperazin-1-yl)cyclohexyl)oxy)acetamido)-3,3-dimethylbutanoyl)-4-hydroxy-N-((S)-1-(4-(4-methylthiazol-5-yl)phenyl)ethyl)pyrrolidine-2-carboxamide]	> 0.501 µM	26 to 50%
COc1cc(-c2scnc2C)ccc1CNC(=O)C1C[C@@H](O)CN1C(=O)[C@@H](NC(=O)COCCN1CCN(c2ccc(C(=O)N[C@H]3C(C)(C)[C@H](Oc4ccc(C#N)c(Cl)c4)C3(C)C)cn2)CC1)C(C)(C)C (stereo partly drawn) [Example 793, N-((1r,3r)-3-(3-chloro-4-cyanophenoxy)-2,2,4,4-tetramethylcyclobutyl)-6-(4-(2-(2-(((S)-1-((2S,4R)-4-hydroxy-2-((2-methoxy-4-(4-methylthiazol-5-yl)benzyl)carbamoyl)pyrrolidin-1-yl)-3,3-dimethyl-1-oxobutan-2-yl)amino)-2-oxoethoxy)ethyl)piperazin-1-yl)nicotinamide]	< 0.05 µM	> 71%
Cc1ncsc1-c1ccc([C@H](C)NC(=O)[C@@H]2C[C@@H](O)CN2C(=O)[C@@H](NC(=O)CN2CC(N3CCN(c4ccc(C(=O)N[C@H]5C(C)(C)[C@H](Oc6ccc(C#N)c(Cl)c6)C5(C)C)cn4)CC3)C2)C(C)(C)C)cc1 [Example 794, N-((1r,3r)-3-(3-chloro-4-cyanophenoxy)-2,2,4,4-tetramethylcyclobutyl)-6-(4-(1-(2-(((S)-1-((2S,4R)-4-hydroxy-2-(((S)-1-(4-(4-methylthiazol-5-yl)phenyl)ethyl)carbamoyl)pyrrolidin-1-yl)-3,3-dimethyl-1-oxobutan-2-yl)amino)-2-oxoethyl)azetidin-3-yl)piperazin-1-yl)nicotinamide]	< 0.05 µM	51 to 70%
Cc1ncsc1-c1ccc([C@H](C)NC(=O)[C@@H]2C[C@@H](O)CN2C(=O)[C@@H](NC(=O)CN2CCN(C3CN(c4ccc(C(=O)N[C@H]5C(C)(C)[C@H](Oc6ccc(C#N)c(Cl)c6)C5(C)C)cn4)C3)CC2)C(C)(C)C)cc1 [Example 795, N-((1r,3r)-3-(3-chloro-4-cyanophenoxy)-2,2,4,4-tetramethylcyclobutyl)-6-(3-(4-(2-(((S)-1-((2S,4R)-4-hydroxy-2-(((S)-1-(4-(4-methylthiazol-5-yl)phenyl)ethyl)carbamoyl)pyrrolidin-1-yl)-3,3-dimethyl-1-oxobutan-2-yl)amino)-2-oxoethyl)piperazin-1-yl)azetidin-1-yl)nicotinamide]	< 0.05 µM	> 71%
Cc1ncsc1-c1ccc([C@H](C)NC(=O)[C@@H]2C[C@@H](O)CN2C(=O)[C@H](c2cc(N3CCN(CCCc4ccc(C(=O)N[C@H]5C(C)(C)[C@H](Oc6ccc(C#N)c(Cl)c6)C5(C)C)cc4)CC3)no2)C(C)C)cc1 [Example 796, (2S,4R)-1-((S)-2-(3-(4-(3-(4-(((1r,3r)-3-(3-chloro-4-cyanophenoxy)-2,2,4,4-tetramethylcyclobutyl)carbamoyl)phenyl)propyl)piperazin-1-yl)isoxazol-5-yl)-3-methylbutanoyl)-4-hydroxy-N-((S)-1-(4-(4-methylthiazol-5-yl)phenyl)ethyl)pyrrolidine-2-carboxamide]	> 0.501 µM	26 to 50%
Cc1ncsc1-c1ccc([C@H](C)NC(=O)[C@@H]2C[C@@H](O)CN2C(=O)[C@@H](c2cc(N3CCN(CCCc4ccc(C(=O)N[C@H]5C(C)(C)[C@H](Oc6ccc(C#N)c(Cl)c6)C5(C)C)cc4)CC3)no2)C(C)C)cc1 [Example 797, (2S,4R)-1-((R)-2-(3-(4-(3-(4-(((1r,3r)-3-(3-chloro-4-cyanophenoxy)-2,2,4,4-tetramethylcyclobutyl)carbamoyl)phenyl)propyl)piperazin-1-yl)isoxazol-5-yl)-3-methylbutanoyl)-4-hydroxy-N-((S)-1-(4-(4-methylthiazol-5-yl)phenyl)ethyl)pyrrolidine-2-carboxamide]	< 0.05 µM	51 to 70%
Cc1ncsc1-c1ccc([C@H](C)NC(=O)[C@@H]2C[C@@H](O)CN2C(=O)[C@@H](NC(=O)CCCCN2C[C@H]3C[C@@H]2CN3c2ccc(C(=O)N[C@H]3C[C@H](Oc4ccc(C#N)c(Cl)c4)C3)cn2)C(C)(C)C)cc1 [Example 798, N-((1r,3R)-3-(3-chloro-4-cyanophenoxy)cyclobutyl)-6-((1R,4R)-5-(5-(((S)-1-((2S,4R)-4-hydroxy-2-(((S)-1-(4-(4-methylthiazol-5-yl)phenyl)ethyl)carbamoyl)pyrrolidin-1-yl)-3,3-dimethyl-1-oxobutan-2-yl)amino)-5-oxopentyl)-2,5-diazabicyclo[2.2.1]heptan-2-yl)nicotinamide]	> 0.501 µM	< 25%
Cc1ncsc1-c1ccc([C@H](C)NC(=O)C2C[C@@H](O)CN2C(=O)C(NC(=O)CCC(F)(F)CN2CCN(c3ccc(C(=O)N[C@H]4C(C)(C)[C@H](Oc5ccc(C#N)c(Cl)c5)C4(C)C)cn3)CC2)C(C)(C)C)cc1 (stereo partly drawn) [Example 799, N-((1r,3r)-3-(3-chloro-4-cyanophenoxy)-2,2,4,4-tetramethylcyclobutyl)-6-(4-(2,2-difluoro-5-(((S)-1-((2S,4R)-4-hydroxy-2-(((S)-1-(4-(4-methylthiazol-5-yl)phenyl)ethyl)carbamoyl)pyrrolidin-1-yl)-3,3-dimethyl-1-oxobutan-2-yl)amino)-5-oxopentyl)piperazin-1-yl)nicotinamide]	< 0.05 µM	51 to 70%
Cc1ncsc1-c1ccc(C(CO)NC(=O)[C@@H]2C[C@@H](O)CN2C(=O)[C@@H](NC(=O)CCC(F)(F)CN2CCN(c3ccc(C(=O)N[C@H]4C(C)(C)[C@H](Oc5ccc(C#N)c(Cl)c5)C4(C)C)cn3)CC2)C(C)(C)C)cc1 (stereo partly drawn) [Example 800, N-((1r,3r)-3-(3-chloro-4-cyanophenoxy)-2,2,4,4-tetramethylcyclobutyl)-6-(4-(2,2-difluoro-5-(((S)-1-((2S,4R)-4-hydroxy-2-(((R)-2-hydroxy-1-(4-(4-methylthiazol-5-yl)phenyl)ethyl)carbamoyl)pyrrolidin-1-yl)-3,3-dimethyl-1-oxobutan-2-yl)amino)-5-oxopentyl)piperazin-1-yl)nicotinamide]	< 0.05 µM	> 71%
